± gives the expanded uncertainty stated by the source.
Assay: xn = mol fraction of the nth substance listed
Details: Gas, Buoyancy - hydrostatic balance with magnetic suspension - one sinker

C [methane] + O=C=O
mass density (333.12 K, 18006 kPa, x2 = 0.6015): 310.346 ± 2.1 kg/m3 | mass density (333.13 K, 5006 kPa, x2 = 0.8988): 88.521 ± 0.4 kg/m3 | mass density (333.13 K, 5996 kPa, x2 = 0.2017): 50.919 ± 0.3 kg/m3 | mass density (333.13 K, 7000 kPa, x2 = 0.0998): 51.598 ± 0.33 kg/m3 | mass density (333.13 K, 10993 kPa, x2 = 0.8988): 274.201 ± 2.2 kg/m3 | mass density (333.13 K, 12000 kPa, x2 = 0.6015): 189.959 ± 1.2 kg/m3 | mass density (333.13 K, 14996 kPa, x2 = 0.3997): 186.621 ± 1.1 kg/m3 | mass density (333.14 K, 4996 kPa, x2 = 0.2017): 41.851 ± 0.26 kg/m3 | mass density (333.14 K, 7998 kPa, x2 = 0.6015): 114.282 ± 0.6 kg/m3 | mass density (333.14 K, 10995 kPa, x2 = 0.6015): 169.869 ± 0.99 kg/m3 | mass density (333.14 K, 11002 kPa, x2 = 0.3997): 130.586 ± 0.75 kg/m3 | mass density (333.14 K, 11997 kPa, x2 = 0.8988): 319.541 ± 2.8 kg/m3 | mass density (333.14 K, 14998 kPa, x2 = 0.7985): 360.976 ± 2.7 kg/m3 | mass density (333.14 K, 18001 kPa, x2 = 0.0998): 140.51 ± 0.95 kg/m3 | mass density (333.15 K, 6001 kPa, x2 = 0.0998): 43.781 ± 0.28 kg/m3 | mass density (333.15 K, 8994 kPa, x2 = 0.6015): 131.934 ± 0.7 kg/m3 | mass density (333.15 K, 11999 kPa, x2 = 0.0998): 92.187 ± 0.6 kg/m3 | mass density (333.15 K, 14994 kPa, x2 = 0.2017): 138.03 ± 0.88 kg/m3 | mass density (333.15 K, 14999 kPa, x2 = 0.6015): 251.317 ± 1.7 kg/m3 | mass density (333.16 K, 7002 kPa, x2 = 0.6015): 97.409 ± 0.51 kg/m3 | mass density (333.16 K, 11003 kPa, x2 = 0.0998): 83.984 ± 0.55 kg/m3 | mass density (333.16 K, 12001 kPa, x2 = 0.2017): 108.442 ± 0.67 kg/m3 | mass density (333.16 K, 18000 kPa, x2 = 0.7985): 447.149 ± 3.2 kg/m3 | mass density (333.16 K, 18001 kPa, x2 = 0.3997): 227.522 ± 1.4 kg/m3 | mass density (333.17 K, 4004 kPa, x2 = 0.3997): 41.983 ± 0.23 kg/m3 | mass density (333.17 K, 4007 kPa, x2 = 0.8988): 67.864 ± 0.3 kg/m3 | mass density (333.17 K, 5002 kPa, x2 = 0.7985): 80.565 ± 0.36 kg/m3 | mass density (333.17 K, 7997 kPa, x2 = 0.8988): 164.576 ± 0.89 kg/m3 | mass density (333.18 K, 9007 kPa, x2 = 0.7985): 170.905 ± 0.94 kg/m3 | mass density (333.18 K, 9999 kPa, x2 = 0.0998): 75.751 ± 0.49 kg/m3 | mass density (333.18 K, 12003 kPa, x2 = 0.7985): 260.729 ± 1.8 kg/m3 | mass density (333.19 K, 7001 kPa, x2 = 0.8988): 136.146 ± 0.71 kg/m3 | mass density (333.19 K, 8000 kPa, x2 = 0.0998): 59.549 ± 0.39 kg/m3 | mass density (333.19 K, 8996 kPa, x2 = 0.8988): 196.344 ± 1.3 kg/m3 | mass density (333.19 K, 8999 kPa, x2 = 0.0998): 67.601 ± 0.44 kg/m3 | mass density (333.19 K, 9999 kPa, x2 = 0.7985): 198.595 ± 1.2 kg/m3 | mass density (333.19 K, 10001 kPa, x2 = 0.6015): 150.602 ± 0.84 kg/m3 | mass density (333.19 K, 11002 kPa, x2 = 0.7985): 228.687 ± 1.5 kg/m3 | mass density (333.2 K, 5991 kPa, x2 = 0.7985): 100.196 ± 0.47 kg/m3 | mass density (333.2 K, 6008 kPa, x2 = 0.3997): 65.434 ± 0.34 kg/m3 | mass density (333.2 K, 7994 kPa, x2 = 0.7985): 145.123 ± 0.76 kg/m3 | mass density (333.2 K, 8002 kPa, x2 = 0.2017): 69.464 ± 0.42 kg/m3 | mass density (333.21 K, 9996 kPa, x2 = 0.8988): 232.812 ± 1.6 kg/m3 | mass density (333.21 K, 18000 kPa, x2 = 0.8988): 552.634 ± 4.4 kg/m3 | mass density (333.22 K, 6999 kPa, x2 = 0.2017): 60.167 ± 0.36 kg/m3 | mass density (333.22 K, 7005 kPa, x2 = 0.7985): 121.973 ± 0.6 kg/m3 | mass density (333.22 K, 7995 kPa, x2 = 0.3997): 90.268 ± 0.49 kg/m3 | mass density (333.24 K, 6001 kPa, x2 = 0.8988): 110.997 ± 0.54 kg/m3 | mass density (353.02 K, 2999 kPa, x2 = 0.0998): 19.722 ± 0.16 kg/m3 | mass density (353.03 K, 10001 kPa, x2 = 0.6015): 135.164 ± 0.69 kg/m3 | mass density (353.05 K, 9004 kPa, x2 = 0.6015): 119.448 ± 0.62 kg/m3 | mass density (353.08 K, 12003 kPa, x2 = 0.8988): 250.219 ± 1.6 kg/m3 | mass density (353.08 K, 14998 kPa, x2 = 0.2017): 125.022 ± 0.77 kg/m3 | mass density (353.09 K, 11999 kPa, x2 = 0.6015): 167.978 ± 0.89 kg/m3 | mass density (353.09 K, 17992 kPa, x2 = 0.6015): 269.799 ± 1.6 kg/m3 | mass density (353.1 K, 8995 kPa, x2 = 0.8988): 165.756 ± 0.91 kg/m3 | mass density (353.1 K, 17997 kPa, x2 = 0.8988): 437.7 ± 3.2 kg/m3 | mass density (353.11 K, 12000 kPa, x2 = 0.3997): 129.551 ± 0.71 kg/m3 | mass density (353.11 K, 18006 kPa, x2 = 0.7985): 362.285 ± 2.4 kg/m3 | mass density (353.12 K, 5997 kPa, x2 = 0.8988): 99.468 ± 0.47 kg/m3 | mass density (353.12 K, 6004 kPa, x2 = 0.6015): 74.991 ± 0.37 kg/m3 | mass density (353.12 K, 18000 kPa, x2 = 0.3997): 201.731 ± 1.2 kg/m3 | mass density (353.13 K, 4000 kPa, x2 = 0.8988): 61.9 ± 0.27 kg/m3 | mass density (353.13 K, 6004 kPa, x2 = 0.3997): 60.111 ± 0.32 kg/m3 | mass density (353.13 K, 14997 kPa, x2 = 0.3997): 165.894 ± 0.96 kg/m3 | mass density (353.14 K, 9003 kPa, x2 = 0.0998): 62.172 ± 0.4 kg/m3 | mass density (353.14 K, 14999 kPa, x2 = 0.6015): 219.076 ± 1.3 kg/m3 | mass density (353.15 K, 6003 kPa, x2 = 0.7985): 90.263 ± 0.42 kg/m3 | mass density (353.15 K, 14995 kPa, x2 = 0.0998): 106.161 ± 0.7 kg/m3 | mass density (353.15 K, 14999 kPa, x2 = 0.8988): 346.055 ± 2.4 kg/m3 | mass density (353.16 K, 3001 kPa, x2 = 0.6015): 35.135 ± 0.18 kg/m3 | mass density (353.16 K, 15004 kPa, x2 = 0.7985): 288.885 ± 1.8 kg/m3 | mass density (353.17 K, 9004 kPa, x2 = 0.3997): 93.855 ± 0.49 kg/m3 | mass density (353.18 K, 3996 kPa, x2 = 0.7985): 56.892 ± 0.27 kg/m3 | mass density (353.18 K, 4002 kPa, x2 = 0.2017): 30.584 ± 0.19 kg/m3 | mass density (353.18 K, 4004 kPa, x2 = 0.3997): 38.873 ± 0.2 kg/m3 | mass density (353.18 K, 11994 kPa, x2 = 0.7985): 214.517 ± 1.2 kg/m3 | mass density (353.22 K, 8998 kPa, x2 = 0.7985): 147.521 ± 0.75 kg/m3 | mass density (353.22 K, 17999 kPa, x2 = 0.0998): 127.527 ± 0.85 kg/m3 | mass density (353.23 K, 6000 kPa, x2 = 0.0998): 40.53 ± 0.26 kg/m3 | mass density (353.24 K, 11994 kPa, x2 = 0.0998): 84.225 ± 0.55 kg/m3 | mass density (353.26 K, 6007 kPa, x2 = 0.2017): 46.942 ± 0.28 kg/m3 | mass density (353.27 K, 9000 kPa, x2 = 0.2017): 72.326 ± 0.43 kg/m3 | mass density (353.28 K, 12001 kPa, x2 = 0.2017): 98.585 ± 0.6 kg/m3 | mass density (353.37 K, 17994 kPa, x2 = 0.2017): 150.552 ± 0.93 kg/m3
